Measurements as given in PubChem BioAssay (NCI).
Values joined by “and” are separate entries in the source; they are usually repeats but may differ in a detail not shown here. Identical values can stand only once.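 In this assay, cells in 96-well plates receive the compound at five concentrations for 48 hours. Endpoints are linearly interpolated between the surrounding concentrations. GI50: concentration for 50% inhibition of growth. TGI: concentration producing complete growth inhibition.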

What was measured:
Assay in all cases: DTP human tumour cell line panel, 48 h
K-562 leukemia = tested on: K-562 leukemia
SK-MEL-28 melanoma = tested on: SK-MEL-28 melanoma
MOLT-4 leukemia = tested on: MOLT-4 leukemia
MALME-3M melanoma = tested on: MALME-3M melanoma
U251 CNS = tested on: U251 CNS
TK-10 renal = tested on: TK-10 renal
NCI-H23 lung = tested on: NCI-H23 lung
HOP-92 NSCLC = tested on: HOP-92 NSCLC
SN12C renal = tested on: SN12C renal
SK-OV-3 ovarian = tested on: SK-OV-3 ovarian

Row | Structure (SMILES) | GI50 (K-562 leukemia) | TGI (K-562 leukemia) | GI50 (SK-MEL-28 melanoma) | TGI (SK-MEL-28 melanoma) | GI50 (MOLT-4 leukemia) | GI50 (MALME-3M melanoma) | TGI (MALME-3M melanoma) | GI50 (U251 CNS) | TGI (U251 CNS) | GI50 (TK-10 renal) | TGI (TK-10 renal) | GI50 (NCI-H23 lung) | TGI (NCI-H23 lung) | GI50 (HOP-92 NSCLC) | TGI (HOP-92 NSCLC) | GI50 (SN12C renal) | TGI (SN12C renal) | GI50 (SK-OV-3 ovarian) | TGI (SK-OV-3 ovarian) | TGI (MOLT-4 leukemia)
1 | NC(=O)c1cc(I)ccc1NC(=O)/C=C/c1ccccc1 | 0.668 µM | > 100 µM | 1.17 µM | > 86.8 µM | 0.539 µM | 2.1 µM | > 100 µM | 0.504 µM | 14.6 µM | 2.9 µM | 44.1 µM | 1 µM | > 44.9 µM | 17 µM | 97.7 µM | 0.69 µM | > 63.4 µM | 0.604 µM | 12.8 µM | 
2 | COc1ccc(CNc2c3ccccc3nc3ccccc23)cc1F | 2.94 µM | 12.3 µM | 3.84 µM | 13.9 µM | 3.28 µM | 2.71 µM | 7.73 µM | 3.82 µM | 15.5 µM | 3.55 µM | 15.7 µM | 2.74 µM | 12.9 µM | 1.96 µM | 7.61 µM | 2.93 µM | 11.9 µM | 3.66 µM | 16.3 µM | 14.6 µM
3 | CCn1cc(-c2ccnc3[nH]c(-c4cccc(CN(C)C)c4)cc23)c(-c2ccc(NC(=O)N(C)C)cc2)n1 |  | 17.2 µM and 2.96 µM | 3.45 µM and > 10 µM | 17.1 µM and > 10 µM | 2.15 µM and 1.74 µM | 12 µM and > 10 µM | 29.3 µM and > 10 µM | 2.34 µM and 4.03 µM | 19.1 µM and > 10 µM | 6.77 µM and 1.67 µM | 26 µM and > 10 µM | 2.1 µM and 2.45 µM | 17.2 µM and > 10 µM | 0.338 µM and 0.294 µM | 5.2 µM and 2.99 µM | 1.38 µM and 0.994 µM | > 57.8 µM | 2.16 µM and 3.83 µM | 15.2 µM and > 10 µM | 39.3 µM and > 10 µM
4 | Cc1nc2c(N)ncnc2o1 |  | > 100 µM |  | > 100 µM |  |  | > 100 µM |  | > 100 µM |  | > 100 µM |  | > 100 µM |  | > 100 µM |  | > 100 µM |  | > 100 µM | > 100 µM
5 | O=C1C/C(Br)=C\c2ccccc2-c2ccccc21 |  | 9.65 µM |  | 2.8 µM |  |  | 4.94 µM |  | 6.83 µM |  | 14.5 µM |  | 9.56 µM |  | 5.27 µM |  | 4.8 µM |  | 10.1 µM | 7.81 µM
6 | CCN(Cc1c(F)cccc1OC)c1ccc(CO)c(Cl)c1 | 0.623 µM | 15.7 µM | 14.7 µM | 34.3 µM | 17.4 µM | 14 µM | 31.7 µM | 0.716 µM | 26.7 µM |  | 0.0536 µM | 12.5 µM | 39.2 µM | 0.933 µM | 10 µM | 12.8 µM | 26 µM | 3.65 µM | 19.9 µM | 52.3 µM
7 | CCOC(=O)c1c(C)c2c(n1Cc1ccccc1)CSCC2=O | 21.7 µM | > 100 µM | 22.2 µM | 55.7 µM | 12.2 µM | 17.5 µM | 49.2 µM | 22.4 µM | > 100 µM | 27.3 µM | 81.4 µM | 17.2 µM | 63.8 µM | 1.21 µM | 19.8 µM | 26 µM | > 100 µM | 23.8 µM | > 100 µM | 51.9 µM
8 | CCCCCCCCCCCC[N+]12CC[N+](CCN)(CC1)CC2 |  | > 100 µM |  | > 100 µM |  |  | > 100 µM |  | > 100 µM |  | 39.7 µM |  | > 100 µM |  | > 100 µM |  | > 100 µM |  | > 100 µM | > 100 µM
9 | CC[C@]1(O)C[C@H]2CN(CCc3c([nH]c4ccccc34)C(C(=O)OC)(c3cc4c(cc3OC)N(C)[C@H]3[C@@](O)(C(=O)OC)[C@H](OC(C)=O)[C@]5(CC)[C@@H]6C[C@@H]6CN6CC[C@]43[C@@H]65)C2)C1 (some centres not stated) | 0.00266 µM | 2.82 µM | 0.00305 µM | > 14.3 µM | 0.0074 µM | 0.00659 µM | > 8.73 µM | 0.00344 µM | 0.527 µM | 0.0404 µM | 5.62 µM | 0.003 µM | 0.498 µM | 0.00682 µM | 0.827 µM | 0.00838 µM | > 14.3 µM | 0.00285 µM | 0.0176 µM | 5.43 µM
10 | O=c1[nH]c(=O)n(C2CC(O)C(CO)O2)cc1OS(=O)(=O)C(F)(F)F (configuration not stated) |  | > 100 µM |  | > 100 µM |  |  | > 100 µM |  | > 100 µM |  | > 100 µM |  | > 100 µM |  | > 100 µM |  | > 100 µM |  | > 100 µM | > 100 µM
11 | CC[C@@H]1NC(C(=O)OC)Cc2c1[nH]c1ccccc21 (some centres not stated) |  | > 100 µM |  | > 100 µM |  |  | > 100 µM |  | > 100 µM |  | > 100 µM |  | > 100 µM |  | > 100 µM |  | > 100 µM |  | > 100 µM | > 100 µM
12 | O=C1C=C(c2c(O)ccc3ccccc23)c2cc(O)ccc2C1=O |  | > 100 µM |  | 36 µM |  |  | 34.2 µM |  | 28.4 µM |  | 35.4 µM |  | 29.7 µM |  | 31.9 µM |  | 32.4 µM |  | 38.5 µM | 8.67 µM
13 | Cc1ccc2c(c1)c1ccc3c(c1n2C)C(=O)C=CC3=O |  | 2.31 µM |  | 4.76 µM |  |  | 3.8 µM |  | > 10 µM |  | 3.76 µM |  | 5.82 µM |  | 3.92 µM |  | > 7.51 µM |  | > 10 µM | 2.19 µM
14 | O=C(c1ccc([N+](=O)[O-])cc1[N+](=O)[O-])N(/N=C/C=C/c1ccccc1)c1nnc(-c2ccccc2)c(-c2ccccc2)n1 |  | 57.3 µM |  | 68.6 µM |  |  | > 100 µM |  | > 100 µM |  | 78 µM |  | 93.2 µM |  | 51.2 µM |  | > 100 µM |  | > 100 µM | > 100 µM
15 | Cc1cc(C)nc(NS(=O)(=O)c2ccc(Nc3c4ccccc4nc4c(C(=O)N5CCN(CCO)CC5)cccc34)cc2)n1 |  | > 100 µM |  | > 100 µM |  |  | > 100 µM |  | > 100 µM |  | > 100 µM |  | > 100 µM |  | > 100 µM |  | > 100 µM |  | > 100 µM | > 100 µM
16 | CC(=O)N/C(=C\c1ccccc1/C=C(\NC(C)=O)c1nc2cc(C)c(C)cc2[nH]1)c1nc2cc(C)c(C)cc2[nH]1 |  | 95.5 µM |  | 48.8 µM |  |  | 54.2 µM |  | > 100 µM |  | > 100 µM |  | 94.9 µM |  | 62.1 µM |  | 35.3 µM |  | 69.1 µM | 97.4 µM
17 | NNc1ncnc2nc[nH]c12 | 3.4 µM | > 100 µM | 34.6 µM | > 100 µM | 5.31 µM | 28.6 µM | > 100 µM | 10.9 µM | > 100 µM | 2.94 µM | > 100 µM | 10.1 µM | > 100 µM | 4 µM | 55.4 µM | 7.33 µM | > 100 µM | 2.63 µM | 28.4 µM | > 60.1 µM
18 | CC12c3ccccc3C(OC=O)(c3ccccc31)C1(C)c3ccccc3C2(OC=O)c2ccccc21 |  | > 100 µM |  | > 100 µM |  |  | > 100 µM |  | > 100 µM |  | > 100 µM |  | > 100 µM |  | > 100 µM |  | > 100 µM |  | > 100 µM | 68.5 µM
19 | CN(Cc1cnc2nc(N)nc(N)c2n1)c1ccc(C(=O)N[C@@H](CCS(=O)(=O)O)C(=O)O)cc1 |  | > 100 µM |  | > 100 µM |  |  | > 100 µM |  | > 100 µM |  | > 100 µM |  | > 100 µM |  | > 100 µM |  | > 100 µM |  | > 100 µM | > 100 µM
20 | CCOC(=O)Cc1csc(Nc2ccccc2[N+](=O)[O-])n1 |  | > 100 µM |  | > 100 µM |  |  | > 100 µM |  | > 100 µM |  | > 100 µM |  | > 100 µM |  | > 100 µM |  | > 100 µM |  | > 100 µM | > 100 µM
